Series [1] concerns the target T1, HMGCoAR (catalytic domain) (Homo sapiens, UniProt P04035).
T1 construct: HMGCoAR (catalytic domain) (2 µL); purchased Sigma-Aldrich
T1 sequence (P04035 426-888 limits assumed): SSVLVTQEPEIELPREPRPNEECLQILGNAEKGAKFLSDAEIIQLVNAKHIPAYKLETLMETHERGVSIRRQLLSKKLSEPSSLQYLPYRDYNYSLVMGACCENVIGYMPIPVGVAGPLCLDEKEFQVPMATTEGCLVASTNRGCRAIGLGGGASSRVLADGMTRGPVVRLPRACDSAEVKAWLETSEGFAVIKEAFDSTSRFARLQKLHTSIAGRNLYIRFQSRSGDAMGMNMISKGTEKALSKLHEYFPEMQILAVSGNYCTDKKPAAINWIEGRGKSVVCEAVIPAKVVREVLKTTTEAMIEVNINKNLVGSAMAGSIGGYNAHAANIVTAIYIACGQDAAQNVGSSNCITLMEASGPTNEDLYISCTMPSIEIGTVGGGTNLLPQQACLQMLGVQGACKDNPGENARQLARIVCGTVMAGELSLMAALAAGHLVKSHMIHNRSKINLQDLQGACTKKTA
Briefly: HMGCoAR activity assay (NADPH oxidation, absorbance 340 nm). Format: biochemical. As to conditions: purified catalytic domain of HMGCoAR; H3 10-1000 μM; 37 °C; absorbance 340 nm at 0 and 10 min; three independent experiments in triplicate.

The test system of the next series is HepG2 cells. Briefly: MTT assay, HepG2 cell viability. Format: cell-based, human. As to conditions: 48 h. As for the experimental part: A total of 3 × 10^4 HepG2 cells/well were seeded in 96-well plates and treated with peptide H3 (0.00001, 0.0001, 0.001, 0.01, 0.1, and 1.0 mM) or vehicle (H2O) in complete growth media at 37 °C for 48 h under 5% CO2 atmosphere. MTT experiments were performed using the protocol reported in the Supplementary Materials.
HMGCoAR were provided in the HMGCoAR Assay Kit (Sigma Aldrich SRL, Milan, Italy). The experiments were carried out following the manufacturer instructions at 37 °C. […] Subsequently, the samples were mixed and the absorbance at 340 nm read by the microplate reader Synergy H1 […]
vehicle (H2O) in complete growth media for at 37 °C under 5% CO2 atmosphere for 48 h. […] After 5 min of slow shaking, the absorbance at 575 nm was read on the Synergy H1 fluorescence plate reader (Biotek, Bad Friedrichshall, Germany). […]
For the experiments, a total of 3 X 10 4 HepG2 cells/well were seeded in 96-well plates. […] The reaction was stopped with 2 M H2SO4 and then the absorbance at 450 nm was measured using the microplate reader Synergy H1 (Winooski, VT, USA). After the read, cells were stained by adding 1 X Janus Green stain, incubating for 5 min at RT. […]
Afterward 100 µL 0.5 M HCl for well were added and incubated for 10 min. After 10 min shaking, the OD at 595 nm was measured using the microplate reader Synergy H1 (Winooski, VT, USA). […]
On the technique in general: Formazan colour is commonly taken as a measure of viable cells.

The next series has as its system Caco-2 cells. The following applies: differentiated Caco-2; cited from earlier work. As for the experimental part:
CVD is a multifactorial pathology in which oxidative and inflammatory status as well as hypercholesterolemia are among the main risk factors. […] To achieve this goal, a deeper study was carried out for characterizing the potential effect of peptide H3 o ...

In general, IC50 refers to the concentration that gives 50% inhibition. Low readings indicate greater potency, high ones weaker potency.

Where no end group is shown, it is not given here.

On to IGFLIIWV [H3], for which the midpoint of inhibition in series [1], the IC50, lay at 59 µM. Besides, the reduced cell viability in the series with HepG2 cells (1 mM H3, mean ± S.D. of three experiments in triplicate, Figure S1) amounted to 19.63 ± 0.59%. Also, the “effect on HepG2 viability” value with HepG2 cells (up to 100 µM, versus control cells, three experiments in triplicate) is “no effect on HepG2 viability was observed up to 100 µM”. In the series on Caco-2 cells, the intestinal trans-epithelial transport result is “transported intact by differentiated Caco-2”.

Source of the values: paper PMC9101684, “Hempseed (Cannabis sativa) Peptide H3 ([sequence]) Exerts Cholesterol-Lowering Effects in Human Hepatic Cell Line” (Nutrients, 2022).
